Source: patent US20240360157A1, “TYK2 INHIBITORS” (BIOGEN MA INC., priority 2021, published 2024)

Tests used:
Type in all cases: biochemical
[1] = target: human JAK1 catalytic kinase (JH1) domain (Homo sapiens (Human), UniProt P23458); experiment: ADP-Glo Kinase Assay, recombinant JAK1 catalytic kinase (JH1) domain; conditions: recombinant JH1 domain 4 nM, 35 μM ATP, JAK3-342 peptide, mean, read-out: JAK1 biochem IC50 (nM) Mean
How it was run: (§1)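 Enzyme levels: JAK1 4 nM, JAK2 0.2 nM, JAK3 0.3 nM, TYK2 2 nM. Peptide substrate at 50 μM. Reactions ran 100 minutes; ADP formed was converted to luciferase luminescence after ATP depletion. Compounds tested from 10 μM or 1 μM top, 11-point 3-fold dilutions; IC50 from 4-parameter logistic fit of normalized percent activity.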

[2] = target: human JAK3 catalytic kinase (JH1) domain (Homo sapiens (Human), UniProt P52333); experiment: ADP-Glo Kinase Assay, recombinant JAK3 catalytic kinase (JH1) domain; conditions: recombinant JH1 domain 0.3 nM, 4 μM ATP, JAK3-974 peptide, mean, read-out: JAK3 biochem IC50 (nM) Mean
How it was run: as §1

[3] = target: human TYK2 catalytic kinase (JH1) domain (Homo sapiens (Human), UniProt P29597); experiment: ADP-Glo Kinase Assay, recombinant TYK2 catalytic kinase (JH1) domain; conditions: recombinant JH1 domain 2 nM, 10 μM ATP, JAK3-974 peptide, mean, read-out: TYK2 biochem IC50 (nM) Mean
How it was run: as §1

[4] = target: human JAK2 catalytic kinase (JH1) domain (Homo sapiens (Human), UniProt O60674); experiment: ADP-Glo Kinase Assay, recombinant JAK2 catalytic kinase (JH1) domain; conditions: recombinant JH1 domain 0.2 nM, 15 μM ATP, JAK3-974 peptide, mean, read-out: JAK2 biochem IC50 (nM) Mean
How it was run: as §1

Sequence of human JAK1 catalytic kinase (JH1) domain (P23458 875-1153): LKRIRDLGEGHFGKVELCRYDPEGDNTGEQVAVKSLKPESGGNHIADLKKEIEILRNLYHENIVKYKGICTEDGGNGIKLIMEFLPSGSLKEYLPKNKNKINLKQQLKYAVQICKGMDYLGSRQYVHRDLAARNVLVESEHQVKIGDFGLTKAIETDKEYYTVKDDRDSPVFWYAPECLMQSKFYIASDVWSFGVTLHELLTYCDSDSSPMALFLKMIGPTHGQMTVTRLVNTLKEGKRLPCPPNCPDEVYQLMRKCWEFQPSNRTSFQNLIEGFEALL
Sequence of human TYK2 catalytic kinase (JH1) domain (P29597 897-1176): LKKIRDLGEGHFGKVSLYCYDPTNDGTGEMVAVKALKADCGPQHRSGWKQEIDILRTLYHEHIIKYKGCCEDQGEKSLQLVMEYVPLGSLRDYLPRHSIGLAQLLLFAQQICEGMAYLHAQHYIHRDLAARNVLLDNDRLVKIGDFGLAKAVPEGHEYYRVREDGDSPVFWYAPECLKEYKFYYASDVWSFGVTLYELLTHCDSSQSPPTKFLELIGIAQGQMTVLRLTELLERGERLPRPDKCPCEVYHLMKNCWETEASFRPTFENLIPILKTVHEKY
Sequence of human JAK2 catalytic kinase (JH1) domain (O60674 849-1124): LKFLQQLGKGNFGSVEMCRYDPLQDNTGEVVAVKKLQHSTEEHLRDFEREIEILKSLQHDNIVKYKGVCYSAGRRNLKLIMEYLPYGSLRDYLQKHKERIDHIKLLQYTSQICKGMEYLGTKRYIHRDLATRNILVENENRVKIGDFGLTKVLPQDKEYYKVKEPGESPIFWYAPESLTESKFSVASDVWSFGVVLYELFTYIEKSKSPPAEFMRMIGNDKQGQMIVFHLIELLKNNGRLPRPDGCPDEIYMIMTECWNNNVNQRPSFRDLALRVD
Sequence of human JAK3 catalytic kinase (JH1) domain (P52333 822-1111): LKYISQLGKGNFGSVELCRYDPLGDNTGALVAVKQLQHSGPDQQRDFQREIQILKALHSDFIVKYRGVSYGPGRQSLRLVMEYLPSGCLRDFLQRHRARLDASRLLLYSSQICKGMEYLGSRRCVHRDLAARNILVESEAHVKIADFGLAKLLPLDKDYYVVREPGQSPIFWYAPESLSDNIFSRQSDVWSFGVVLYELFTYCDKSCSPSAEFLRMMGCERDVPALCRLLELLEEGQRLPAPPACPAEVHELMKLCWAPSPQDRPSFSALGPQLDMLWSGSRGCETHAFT

SMILES | IC50 [1] [nM] | IC50 [2] [nM] | IC50 [3] [nM] | IC50 [4] [nM]
O=C(C1CC1)N1C2CCC1CN(c1ccnn3cc(-c4cnn(C(F)F)c4)cc13)C2 [Example 16, cyclopropyl(3-(6-(1-(difluoromethyl)-1H-pyrazol-4-yl)pyrrolo[1,2-b]pyridazin-4-yl)-3,8-diazabicyclo[3.2.1]octan-8-yl)methanone] | 264 | 1040 | 13.8 | 257
O=C(C1CC1)N1C2CCC1CN(c1ncnn3cc(-c4cnn(C5CCOCC5)c4)cc13)C2 [Example 153] | 1280 | 1900 | 99.2 | 1520
Cn1cc(-c2cc3c(N4CC5CCC(C4)N5C(=O)C(C)(F)F)ncnn3c2)cn1 [Example 72, 2,2-difluoro-1-(3-(6-(1-methyl-1H-pyrazol-4-yl)pyrrolo[2,1-f][1,2,4]triazin-4-yl)-3,8-diazabicyclo[3.2.1]octan-8-yl)propan-1-one] | 759 | 703 | 206 | 2340
CC(C)C(=O)N1C2CCC1CN(c1ncnn3cc(-c4cnn(C(F)F)c4)cc13)C2 [Example 42, 1-(3-(6-(1-(difluoromethyl)-1H-pyrazol-4-yl)pyrrolo[2,1-f][1,2,4]triazin-4-yl)-3,8-diazabicyclo[3.2.1]octan-8-yl)-2-methylpropan-1-one] | 5220 | 9510 | 466 | 7960
Cn1cc(-c2cc3c(N4CC5CCC(C4)N5S(=O)(=O)[C@@H]4CC4(F)F)ccnn3c2)cn1 [Example 198, 4-(8-(((R)-2,2-difluorocyclopropyl)sulfonyl)-3,8-diazabicyclo[3.2.1]octan-3-yl)-6-(1-methyl-1H-pyrazol-4-yl)pyrrolo[1,2-b]pyridazine] | 266 | 652 | 15.1 | 95
O=C([C@@H]1C[C@H]1F)N1C2CCC1CN(c1ncnn3cc(-c4cnn(C(F)F)c4)cc13)C2 [Example 1, (3-(6-(1-(difluoromethyl)-1H-pyrazol-4-yl)pyrrolo[2,1-f][1,2,4]triazin-4-yl)-3,8-diazabicyclo[3.2.1]octan-8-yl)((1S,2R)-2-fluorocyclopropyl)methanone] | 228 | 1300 | 9 | 315
COc1nccc(-c2cc3c(N4CC5CCC(C4)N5C(=O)[C@@H]4C[C@H]4F)ccnc3[nH]2)c1F [Example 247, ((1S,2R)-2-fluorocyclopropyl)(3-(2-(3-fluoro-2-methoxypyridin-4-yl)-1H-pyrrolo[2,3-b]pyridin-4-yl)-3,8-diazabicyclo[3.2.1]octan-8-yl)methanone] | 40 | 168 | 1.4 | 18
N#C[C@@H]1C[C@@H]1C(=O)N1C2CCC1CN(c1ncnn3cc(-c4cnn(C(F)F)c4)cc13)C2 (racemic) [Example 47, Rac-(1R,2S)-2-(3-(6-(1-(difluoromethyl)-1H-pyrazol-4-yl)pyrrolo[2,1-f][1,2,4]triazin-4-yl)-3,8-diazabicyclo[3.2.1]octane-8-carbonyl)cyclopropane-1-carbonitrile] | 2530 | 6070 | 783 | 8360
O=C([C@@H]1C[C@H]1F)N1C2CCC1CN(c1ccnn3cc(-c4ccnc(N5CCC5)c4)cc13)C2 [Example 119, (3-(6-(2-(azetidin-1-yl)pyridin-4-yl)pyrrolo[1,2-b]pyridazin-4-yl)-3,8-diazabicyclo[3.2.1]octan-8-yl)((1S,2R)-2-fluorocyclopropyl)methanone] | 1720 | 5520 | 45 | 215
O=C([C@@H]1C[C@H]1F)N1C2CCC1CN(c1ccnn3cc(-c4ccnc(OC(F)F)c4)cc13)C2 [Example 111, (3-(6-(2-(difluoromethoxy)pyridin-4-yl)pyrrolo[1,2-b]pyridazin-4-yl)-3,8-diazabicyclo[3.2.1]octan-8-yl)((1S,2R)-2-fluorocyclopropyl)methanone] | 62 | 981 | 3.6 | 57
N#Cc1cc(-c2nc3c(N4CC5CCC(C4)N5C(=O)[C@@H]4C[C@H]4F)ccnc3[nH]2)ccn1 [Example 204, 4-(7-(8-((1S,2R)-2-fluorocyclopropane-1-carbonyl)-3,8-diazabicyclo[3.2.1]octan-3-yl)-3H-imidazo[4,5-b]pyridin-2-yl)picolinonitrile] | 36 | 716 | 12 | 49
COc1cc(-c2cc3c(N4CC5CCC(C4)N5C(=O)[C@@H]4C[C@H]4F)ncnc3[nH]2)ccn1 [Example 231, ((1S,2R)-2-fluorocyclopropyl)(3-(6-(2-methoxypyridin-4-yl)-7H-pyrrolo[2,3-d]pyrimidin-4-yl)-3,8-diazabicyclo[3.2.1]octan-8-yl)methanone] | 115 | 877 | 12.4 | 307
Cc1cc(-c2cc3c(N4CC5CCC(C4)N5C(=O)[C@@H]4C[C@H]4F)ccnn3c2)on1 [Example 173] | 81 | 793 | 2.4 | 37
O=C([C@@H]1C[C@H]1F)N1C2CCC1CN(c1ccnn3cc(-c4ccnc(C(F)F)c4)cc13)C2 [Example 101, (3-(6-(2-(difluoromethyl)pyridin-4-yl)pyrrolo[1,2-b]pyridazin-4-yl)-3,8-diazabicyclo[3.2.1]octan-8-yl)((1S,2R)-2-fluorocyclopropyl)methanone] | 22 | 541 | 1.4 | 27
O=C([C@@H]1C[C@H]1F)N1C2CCC1CN(c1ncnc3[nH]c(-c4ccnc(C(F)(F)F)c4)cc13)C2 [Example 223, ((1S,2R)-2-fluorocyclopropyl)(3-(6-(2-(trifluoromethyl)pyridin-4-yl)-7H-pyrrolo[2,3-d]pyrimidin-4-yl)-3,8-diazabicyclo[3.2.1]octan-8-yl)methanone] | 308 | 1620 | 23.9 | 352
COc1ccc(-c2cc3c(N4CC5CCC(C4)N5C(=O)[C@@H]4C[C@H]4F)ccnn3c2)cn1 [Example 114, ((1S,2R)-2-fluorocyclopropyl)(3-(6-(6-methoxypyridin-3-yl)pyrrolo[1,2-b]pyridazin-4-yl)-3,8-diazabicyclo[3.2.1]octan-8-yl)methanone] | 54 | 684 | 3.8 | 47
O=C(N1C2CCC1CN(c1ncnn3cc(-c4cnn(C(F)F)c4)cc13)C2)C1(F)CC1 [Example 50, (3-(6-(1-(difluoromethyl)-1H-pyrazol-4-yl)pyrrolo[2,1-f][1,2,4]triazin-4-yl)-3,8-diazabicyclo[3.2.1]octan-8-yl)(1-fluorocyclopropyl)methanone] | 1040 | 2020 | 295 | 6150
O=C(C1CCC1)N1C2CCC1CN(c1ncnn3cc(-c4cnn(C(F)F)c4)cc13)C2 [Example 51, cyclobutyl(3-(6-(1-(difluoromethyl)-1H-pyrazol-4-yl)pyrrolo[2,1-f][1,2,4]triazin-4-yl)-3,8-diazabicyclo[3.2.1]octan-8-yl)methanone] | 2830 | 7870 | 407 | 9130
